Common to all, as to experiment: NCI tumour cell line growth inhibition, 48 h
In assay [1] the test system is NCI-H226 lung.
The test system of assay [2] is NCI-H522 lung.
Assay [3] concerns HOP-92 NSCLC.
Assay [4] deals with ACHN renal.
The subject of assay [5] is OVCAR-4 ovarian.
The subject of assay [6] is SK-MEL-5 melanoma.
Assay [7] has as its system HL-60(TB) leukemia.
For assay [8], the system named is OVCAR-3 ovarian.
In assay [9] the test system is NCI-H460 lung.
For assay [10], the system named is HS 578T breast.

This is an account of results in PubChem BioAssay (NCI).

Values joined by “and” are separate entries in the source; they are usually repeats but may differ in a detail not shown here. Equal entries are not always repeated.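 Compound exposure: 48 hours, 5 concentrations, 96-well plates. Abbreviation: GI50, concentration required for 50% inhibition of growth. TGI: concentration producing complete growth inhibition.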

On to `COC(=O)c1cc(=O)[nH]c(=O)[nH]1`, for which the TGI in assay [1], in assay [2], in [3], in [4], in assay [5] and in assay [6] was more than 100 µM each time. Besides, the TGI in assay [7], in assay [8] and in assay [9] was more than 100 µM throughout.
For `CCCCC(=O)c1c(O)nc2sccn2c1=O`, the TGI in assay [1], in [2], in assay [4], in [5], in [10] and in [6] was more than 10 µM in each case. Further, the TGI in [7], in assay [8] and in assay [9] was more than 10 µM in each case.
`COc1ccc2c3c1OC1C(=O)C=CC4(CC2)N(C)CCC314` (stereo not drawn): the TGI is 33 µM in assay [2]; more than 100 µM in [3]; 73.9 µM in assay [4]; more than 100 µM in assay [5]; 92.5 µM in [10]; 24.4 µM in assay [6]. For the same compound, the figures for the TGI in assay [8] and in [9] were more than 100 µM and 71.1 µM, respectively.
In the case of `O=C1C(Cl)=C(OCCCl)C(=O)c2c(O)ccc(O)c21`, the TGI in [1] turned out to be 30.7 µM; in assay [3] it was 3.12 µM; in assay [4], 10.4 µM; in assay [5], 5.46 µM; in [6], 6.91 µM; in [7], 0.197 µM. The TGI is 10.9 µM in [8] and 40.7 µM in assay [9].
`[Cl][Sn]([c]1ccccc1)([c]1ccccc1)[c]1ccccc1`: the GI50 is 0.194 µM and 0.271 µM and 0.278 µM in assay [1]; 0.0939 µM and 0.122 µM and 0.0139 µM in assay [3]; 0.213 µM and 0.034 µM and 0.0215 µM in [4]; 0.378 µM in assay [10]; 0.166 µM and 0.114 µM and 0.0408 µM in assay [6]. Further, the TGI in assay [1] was 0.423 µM and 0.484 µM and 0.433 µM; in assay [10], 23 µM; in assay [6] it was 0.325 µM and 0.242 µM and 0.158 µM; in [7], 0.899 µM and 0.0997 µM; in assay [8], 0.362 µM and 0.0422 µM and 0.0566 µM.
`CCOC(=O)c1nc2ccc(C(F)(F)F)cc2nc1Oc1cc(OC)c(OC)c(OC)c1`: the TGI is 81.9 µM in assay [1]; more than 100 µM in assay [3]; more than 100 µM in assay [4]; 7.69 µM in assay [5]; 73.5 µM in assay [10]; 96.4 µM in assay [6]. In addition, the TGI in assay [7], in assay [8] and in assay [9] was more than 100 µM each time.
Turning to `COc1c(O)c(C=O)c2c(O)c(-c3c(C)cc4c(C(C)C)c(OC)c(O)c(C=O)c4c3O)c(C)cc2c1C(C)C`, the TGI came to 9.69 µM in [1]; 6.56 µM in assay [2]; 8.31 µM in [3]; 8.05 µM in assay [4]; 14 µM in assay [5]; 22.7 µM in [6]. For the same compound, the figures for the TGI in assay [7], in [8] and in [9] were 41.4 µM, 10.7 µM and 16.1 µM, respectively.
Turning to `Cc1cc(C)nc(SC2=C(Nc3ccc(C)c(Cl)c3)C(=O)N(Cc3ccccc3)C2=O)n1`, the GI50 in assay [1], in [2], in assay [3], in [4], in assay [5] and in assay [10] was more than 160 µM each time. The GI50 in [8] and in [9] was more than 160 µM each time. Further, the TGI in assay [1], in assay [2], in assay [3], in [4], in assay [5] and in assay [10] was more than 160 µM each time. Also, the TGI in [8] and in assay [9] was more than 160 µM in each case.
With `C/C=C/c1cc(=O)c([C@@H]2OC(=O)c3cc(OC)cc(OC)c32)co1`, the TGI in assay [1], in [3], in assay [4], in assay [5], in assay [6] and in assay [7] was more than 100 µM throughout. Also, the TGI in assay [8] is 64.3 µM; in assay [9] it was more than 100 µM.
On to `CCOP(=O)(/C=C\n1cc(C)c(=O)[nH]c1=O)OCC`, for which the TGI in assay [1], in assay [2], in [4], in assay [5], in [6] and in assay [7] was more than 100 µM each time. Also, the TGI in assay [8] and in assay [9] was more than 100 µM each time.
Regarding `COC(=O)C1CCC(=S)N1C(=O)c1ccccc1` (stereo not drawn), the TGI in [2], in assay [3], in [4], in assay [5], in assay [10] and in assay [6] was more than 100 µM each time. The TGI in assay [8] and in assay [9] was more than 100 µM each time.
As to `CC(=O)OCC1OC(SC2=N/C(=C\c3ccc(Br)s3)C(=O)N2CN2CCOCC2)C(OC(C)=O)C(OC(C)=O)C1OC(C)=O` (stereo not drawn), the TGI is 32.5 µM in [1]; 23.6 µM in assay [2]; 46.2 µM in assay [4]; more than 100 µM in assay [5]; more than 100 µM in [10]; 33.5 µM in assay [6]. The TGI in [7] came to 12.8 µM; in assay [9], 38.6 µM.
Turning to `COc1cc2ccc(=O)oc2cc1O`, the TGI in assay [1] was 283 µM; in assay [2] it was 618 µM; in [3] it was more than 522 µM; in [5] it was more than 172 µM; in assay [6], 302 µM; in [7] it was 271 µM. In addition, the TGI in [8] was 330 µM; in assay [9], 139 µM.
As to `CC(=C(c1ccccc1)c1ccccc1)N1C(=O)CC(=O)N1C`, the TGI was more than 100 µM in [1]; more than 100 µM in [3]; more than 100 µM in assay [4]; 79.5 µM in assay [5]; 55.4 µM in [10]; more than 100 µM in assay [6]. Besides, the TGI in [8] and in assay [9] was more than 100 µM each time.
Take `COc1ccc(N2C(=O)CC(=O)N(C(=O)COc3ccc(OCC(=O)N4C(=O)CC(=O)N(c5ccc(OC)cc5)C4=S)cc3)C2=S)cc1`: the TGI in assay [1], in [2], in [3], in assay [4], in assay [5] and in [6] was more than 100 µM in each case. The compound also registered a TGI in assay [9] of more than 100 µM.
